Assay results published in patent US20210290597A1, “METHOD OF TREATING A CONDITION ASSOCIATED WITH NEURODEGENERATION USING INHIBITORS OF OAT3” (Neuropore Therapies, Inc., priority 2018, published 2021).
“And” between values parts separate entries of the source, which are not always exact repeats. Equal values may be shown once.

Columns and labels:
human transporter OAT3 = target: T1, human transporter OAT3 (Homo sapiens, UniProt Q8TCC7); assay: In vitro ion transport assay 1, OAT3-mediated uptake in MDCK-II cells; assay type: cell-based
T1 construct: expressed in transfected cells; host or cells: MDCK-II
T1 sequence (Q8TCC7 1-542): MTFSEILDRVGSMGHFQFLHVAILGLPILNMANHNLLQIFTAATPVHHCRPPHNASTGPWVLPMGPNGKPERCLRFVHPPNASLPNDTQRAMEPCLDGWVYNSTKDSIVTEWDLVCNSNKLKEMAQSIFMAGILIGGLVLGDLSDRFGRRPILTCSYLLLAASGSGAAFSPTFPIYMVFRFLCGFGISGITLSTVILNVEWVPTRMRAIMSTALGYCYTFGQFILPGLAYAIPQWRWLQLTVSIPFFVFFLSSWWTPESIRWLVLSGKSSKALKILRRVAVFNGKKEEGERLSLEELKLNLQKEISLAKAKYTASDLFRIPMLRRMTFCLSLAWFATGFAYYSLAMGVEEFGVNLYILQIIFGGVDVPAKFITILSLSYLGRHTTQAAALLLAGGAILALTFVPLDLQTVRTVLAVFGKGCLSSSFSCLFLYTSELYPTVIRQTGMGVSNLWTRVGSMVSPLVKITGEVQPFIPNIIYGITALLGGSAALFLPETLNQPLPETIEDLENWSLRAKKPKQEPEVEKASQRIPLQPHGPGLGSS
Method: To determine the effect of the ion transporter inhibitors on the uptake activity of solute carrier (SLC) ion transporter proteins such as OAT1 and OAT3, an ion transport assay utilizing a polarized monolayer of MDCK-II cells grown on permeable supports was used. The MDCK-II cells were treated to express the transporter of interest (e.g., OAT3 or OAT 1) or were treated with a control vector. 96-well culture plates with both donor and receiver cells containing a monolayer of MDCK-II cells were maintained at 37° C. in 5% CO2 atmosphere. Radio-labeled para-aminohippurate ([3H]-PAH) was used as a substrate for measuring OAT1 and OAT3 mediated transport, where the transport of the substrate was determined by radiometric detection. OAT1-mediated transport was assayed using 2 μM of [3H]-PAH; OAT3-mediated transport was assayed using 10 μM of [3H]-PAH. The probe substrate for OAT1 was 2 μM [3H]-p-aminohippurate. The probe substrate for OAT3 was 10 μM [3H]p-aminohippurate. The reference inhibitor for both assays was 100 μM probenecid. Following pre incubation of the transfected MDCK-II cells in HBSS, [3H]-PAH was added at the concentrations described above. Wells were then treated with either reference inhibitor probeneic acid or with the test compound. Cells transfected with empty vector served as an additional control. […]

total alpha-synuclein = assay: Total alpha-synuclein IHC, L61 ASYN transgenic mice, 1 month study; assay type: in vivo; settings: for reduction of total alpha-synuclein level in cortex compared to vehicle control: L61 ASYN transgenic mice
Method: Multiple in vivo administration studies of Compound 1 were carried out in the Line 61 (L61) mThy1-alpha-synuclein transgenic mouse model of Parkinson's disease (PD). The mThy1-alpha-synuclein transgenic mouse model overexpresses wild-type human ASYN under the Thy-1 promoter (commonly referred to as Line 61 transgenic mice; Rockenstein et al., 2002). This transgenic mouse develops extensive accumulation of alpha-synuclein (ASYN) in areas relevant to PD (Rockenstein et al., 2002; Chesselet et al., 2012; Games et al., 2013), neurodegeneration including dopaminergic neurodegeneration, reduced dopamine (DA) and TH loss in the striatum (Masliah et al., 2000; Lam et al., 2011), and motor deficits (Fleming et al., 2004). Male transgenic and non-transgenic littermates (3-3.5 mo) were used for all in vivo studies presented here.
Alpha-synuclein (ASYN) is a neuronal protein whose dysregulation has been implicated in the pathogenesis of PD. The effects of Compound 1 on alpha-synuclein aggregation were assessed in both L61 ASYN transgenic and non-transgenic mice in a 1 month administration study. L61 ASYN transgenic mice (36 total mice, n=8-11 mice per treatment group) were injected (i.p.) daily with 1, 5, or 10 mg/kg of Compound 1 or a vehicle control (5% DMSO+20% Cremphor EL+0.9% normal saline) for 1 month. Non-transgenic mice (18 total mice, n=8-11 mice per treatment group) were used as a control and were injected daily (i.p.) with 10 mg/kg of Compound 1 or a vehicle control (5% DMSO+20% Cremphor EL+0.9% normal saline) per day for 1 month. At the end of one month, the mice were sacrificed, and immunohistochemical (IHC) detection of total alpha-synuclein deposits, insoluble alpha-synuclein deposits (PK+resistant), microtubule-associated protein 1A/1B-light chain 3 (LC3), and monomeric alpha-synuclein levels were assessed in the harvested brain tissues.
The quantification and IHC staining of total alpha-synuclein were performed using known techniques (Rockenstein et al., J Neurosci Res. 2002, 68(5):568-78; Tanji et al., Acta Neuropathol. 2010, 120, 145-154; Nuber et al., Brain. 2013 February; 136(Pt 2):412-32).

potency against OAT3 compared with potency against OAT1 (human transporter OAT3; OAT3 vs OAT1, [3H]-PAH uptake): about 20 fold | IC50 (human transporter OAT3; assay 1, probe substrate 10 μM [3H]-p-aminohippurate, MDCK-II cells): 620 nM and 622 nM
Compound: O=S(=O)(c1ccc(-n2cn[nH]c2=S)cc1)c1ccc(Cl)c(C(F)(F)F)c1 [Compound 1, 4-(4-((4-chloro-3-(trifluoromethyl)phenyl)sulfonyl)phenyl)-2,4-dihydro-3H-1,2,4-triazole-3-thione]
reduction of total alpha-synuclein level in cortex compared to vehicle control (total alpha-synuclein; 1 mg/kg daily i.p.): 13% | reduction of total alpha-synuclein level in cortex compared to vehicle control (total alpha-synuclein; 5 mg/kg daily i.p.): 32% | reduction of total alpha-synuclein level in cortex compared to vehicle control (total alpha-synuclein; 10 mg/kg daily i.p.): 38% | total ASYN in the neuropil of cortex, hippocampus and striatum vs vehicle (total alpha-synuclein; 1, 5 or 10 mg/kg per day i.p., statistically significant): reduced total ASYN
